# Reference: ChEMBL document CHEMBL1129023, “Nucleosides and nucleotides. 150. Enzymatic synthesis of 5-phosphatidyl derivatives of (CNDAC) and their notable antitumor effects in mice1” (1996)
# Columns and labels:
# Type in all cases: functional
# Mus musculus [1] = experiment: Compound was evaluated for the percent increase in life span against M5076 sarcoma in mice at a sc dose of 100 mg/kg/day.; conditions: route subcutaneous
# Mus musculus [2] = experiment: Compound was evaluated for the percent increase in life span against M5076 sarcoma in mice at a sc dose of 200 mg/kg/day.; conditions: route subcutaneous
# Mus musculus [3] = experiment: Compound was evaluated for the percent increase in life span against M5076 sarcoma in mice at a sc dose of 300 mg/kg/day.; conditions: route subcutaneous
# Mus musculus [4] = experiment: Compound was evaluated for the body weight change from day 1 to day 12 against M5076 sarcoma in mice at a sc dose of 100 mg/kg/day.; conditions: route subcutaneous
# Mus musculus [5] = experiment: Compound was evaluated for the body weight change from day 1 to day 12 against M5076 sarcoma in mice at a sc dose of 200 mg/kg/day.; conditions: route subcutaneous
# Mus musculus [6] = experiment: Compound was evaluated for the tumor growth inhibition on day 21 against M5076 sarcoma implanted sc in mice at a dose of 100 mg/kg/day.; conditions: 504 h, route subcutaneous, read-out: TGI
# Mus musculus [7] = experiment: Compound was evaluated for the tumor growth inhibition on day 21 against M5076 sarcoma implanted sc in mice at a dose of 200 mg/kg/day.; conditions: 504 h, route subcutaneous, read-out: TGI
# Mus musculus [8] = experiment: Compound was evaluated for the body weight change from day 1 to day 12 against M5076 sarcoma in mice at a sc dose of 300 mg/kg/day: toxic; conditions: route subcutaneous
# Mus musculus [9] = experiment: Compound was evaluated for the tumor growth inhibition on day 21 against M5076 sarcoma implanted sc in mice at a dose of 300 mg/kg/day.; conditions: 504 h, route subcutaneous, read-out: TGI
# Mus musculus [10] = experiment: Compound was evaluated for the body weight change from day 1 to day 12 against M5076 sarcoma in mice at a sc dose of 300 mg/kg/day.; conditions: route subcutaneous
# Mus musculus [11] = experiment: Compound was evaluated for the percent increase in life span against M5076 sarcoma in mice at a sc dose of 25 mg/kg/day.; conditions: route subcutaneous
# Mus musculus [12] = experiment: Compound was evaluated for the percent increase in life span against M5076 sarcoma in mice at a sc dose of 50 mg/kg/day.; conditions: route subcutaneous
# Mus musculus [13] = experiment: Compound was evaluated for the body weight change from day 1 to day 12 against M5076 sarcoma in mice at a sc dose of 25 mg/kg/day.; conditions: route subcutaneous
# Mus musculus [14] = experiment: Compound was evaluated for the tumor growth inhibition on day 21 against M5076 sarcoma implanted sc in mice at a dose of 25 mg/kg/day.; conditions: 504 h, route subcutaneous, read-out: TGI
# Mus musculus [15] = experiment: Compound was evaluated for the tumor growth inhibition on day 21 against M5076 sarcoma implanted sc in mice at a dose of 50 mg/kg/day.; conditions: 504 h, route subcutaneous, read-out: TGI
# Mus musculus [16] = experiment: Compound was evaluated for the body weight change from day 1 to day 12 against M5076 sarcoma in mice at a sc dose of 50 mg/kg/day.; conditions: route subcutaneous
smiles,measurement,setting,value
CCCCCCCCCCCCCC(=O)OCC(COP(=O)([O-])OC[C@H]1O[C@@H](n2ccc(N)nc2=O)[C@@H](C#N)[C@@H]1O)OC(=O)CCCCCCCCCCCCC.[Na+] (stereo not given in full),ILS at 100 mg/kg/day,Mus musculus [1],4%
same,ILS at 200 mg/kg/day,Mus musculus [2],22%
same,ILS at 300 mg/kg/day,Mus musculus [3],0%
same,Weight change,Mus musculus [4],0.8 g
same,Weight change,Mus musculus [5],0.3 g
same,inhibition in vivo at 100 mg/kg/day,Mus musculus [6],80%
same,inhibition in vivo at 200 mg/kg/day,Mus musculus [7],97%
same,Weight change,Mus musculus [8],1 g
CCCCCCCCCCCCCCCC(=O)OCC(COP(=O)([O-])OC[C@H]1O[C@@H](n2ccc(N)nc2=O)[C@@H](C#N)[C@@H]1O)OC(=O)CCCCCCCCCCCCCCC.[Na+] (stereo not given in full),ILS at 100 mg/kg/day,Mus musculus [1],21%
same,ILS at 200 mg/kg/day,Mus musculus [2],38%
same,ILS at 300 mg/kg/day,Mus musculus [3],40%
same,Weight change,Mus musculus [4],0.9 g
same,Weight change,Mus musculus [5],0 g
same,inhibition in vivo at 100 mg/kg/day,Mus musculus [6],93%
same,inhibition in vivo at 200 mg/kg/day,Mus musculus [7],98%
same,inhibition in vivo at 300 mg/kg/day,Mus musculus [9],100%
same,Weight change,Mus musculus [10],1 g
CCCCCCCC/C=C\CCCCCCCC(=O)OCC(COP(=O)([O-])OC[C@H]1O[C@@H](n2ccc(N)nc2=O)[C@@H](C#N)[C@@H]1O)OC(=O)CCCCCCC/C=C\CCCCCCCC.[Na+] (stereo not given in full),ILS at 100 mg/kg/day,Mus musculus [1],13%
same,ILS at 200 mg/kg/day,Mus musculus [2],-12%
same,ILS at 25 mg/kg/day,Mus musculus [11],-3%
same,ILS at 300 mg/kg/day,Mus musculus [3],-58%
same,ILS at 50 mg/kg/day,Mus musculus [12],7%
same,Weight change,Mus musculus [4],0.6 g
same,Weight change,Mus musculus [5],2 g
same,Weight change,Mus musculus [13],1.6 g
same,inhibition in vivo at 100 mg/kg/day,Mus musculus [6],98%
same,inhibition in vivo at 25 mg/kg/day,Mus musculus [14],69%
same,inhibition in vivo at 50 mg/kg/day,Mus musculus [15],92%
same,Weight change,Mus musculus [10],3 g
same,Weight change,Mus musculus [16],0.8 g
CCCCC/C=C\C/C=C\CCCCCCCC(=O)OCC(COP(=O)([O-])OC[C@H]1O[C@@H](n2ccc(N)nc2=O)[C@@H](C#N)[C@@H]1O)OC(=O)CCCCCCC/C=C\C/C=C\CCCCC.[Na+] (stereo not given in full),ILS at 100 mg/kg/day,Mus musculus [1],15%
same,ILS at 200 mg/kg/day,Mus musculus [2],10%
same,ILS at 300 mg/kg/day,Mus musculus [3],15%
same,Weight change,Mus musculus [4],-0.3 g
same,Weight change,Mus musculus [5],1 g
same,inhibition in vivo at 100 mg/kg/day,Mus musculus [6],93%
same,Weight change,Mus musculus [10],1 g
CCCCCCCCCCCCCCCCCC(=O)OCC(COP(=O)([O-])OC[C@H]1O[C@@H](n2ccc(N)nc2=O)[C@@H](C#N)[C@@H]1O)OC(=O)CCCCCCCCCCCCCCCCC.[Na+] (stereo not given in full),ILS at 100 mg/kg/day,Mus musculus [1],20%
same,ILS at 200 mg/kg/day,Mus musculus [2],49%
same,ILS at 300 mg/kg/day,Mus musculus [3],60%
same,Weight change,Mus musculus [4],1.2 g
same,Weight change,Mus musculus [5],-0.2 g
same,inhibition in vivo at 100 mg/kg/day,Mus musculus [6],88%
same,inhibition in vivo at 200 mg/kg/day,Mus musculus [7],97%
same,inhibition in vivo at 300 mg/kg/day,Mus musculus [9],98%
same,Weight change,Mus musculus [10],-0.3 g
N#C[C@H]1[C@H](O)[C@@H](CO)O[C@H]1n1ccc(N)nc1=O [TAS-109],ILS at 100 mg/kg/day,Mus musculus [1],-11%
same,ILS at 200 mg/kg/day,Mus musculus [2],-7%
same,ILS at 300 mg/kg/day,Mus musculus [3],14%
same,Weight change,Mus musculus [4],1.1 g
same,Weight change,Mus musculus [5],1.2 g
same,inhibition in vivo at 100 mg/kg/day,Mus musculus [6],38%
same,inhibition in vivo at 200 mg/kg/day,Mus musculus [7],47%
same,inhibition in vivo at 300 mg/kg/day,Mus musculus [9],67%
same,Weight change,Mus musculus [10],1 g
